Experimental data from the NIST ThermoML archive (doi:10.1021/je030207i).

Tests used:
[1] = Liquid; for Normal boiling temperature: Ebulliometric method (Recirculating still); for mass density: 298.15 K, 101.3 kPa
[2] = excess molar enthalpy (molar enthalpy of mixing); xn = mol fraction of the nth substance listed; conditions: 101.3 kPa, Liquid, Flow calorimetry

OCCO [1,2-ethanediol]
Conditions	Normal boiling temperature [°C]
[1]	197.23

OCCO [1,2-ethanediol] + CC(C)O
[2]
Conditions	excess molar enthalpy [kcal/mol]
298.15 K, x1 = 0.0678	0.0521
298.15 K, x1 = 0.1326	0.0876
298.15 K, x1 = 0.1951	0.112
298.15 K, x1 = 0.2555	0.128
298.15 K, x1 = 0.3138	0.138
298.15 K, x1 = 0.3702	0.143
298.15 K, x1 = 0.4248	0.145
298.15 K, x1 = 0.4776	0.144
298.15 K, x1 = 0.5287	0.14
298.15 K, x1 = 0.5782	0.134
298.15 K, x1 = 0.6262	0.127
298.15 K, x1 = 0.6727	0.118
298.15 K, x1 = 0.7178	0.107
298.15 K, x1 = 0.7617	0.0951
298.15 K, x1 = 0.8042	0.0815
298.15 K, x1 = 0.8455	0.0677
298.15 K, x1 = 0.8857	0.0523
298.15 K, x1 = 0.9248	0.036
298.15 K, x1 = 0.9628	0.0185
308.15 K, x1 = 0.0675	0.0506
308.15 K, x1 = 0.1325	0.0874
308.15 K, x1 = 0.1953	0.112
308.15 K, x1 = 0.2558	0.128
308.15 K, x1 = 0.3143	0.138
308.15 K, x1 = 0.3708	0.144
308.15 K, x1 = 0.4254	0.145
308.15 K, x1 = 0.4783	0.144
308.15 K, x1 = 0.5294	0.141
308.15 K, x1 = 0.589	0.135
308.15 K, x1 = 0.627	0.127
308.15 K, x1 = 0.6735	0.118
308.15 K, x1 = 0.7186	0.107
308.15 K, x1 = 0.7624	0.0959
308.15 K, x1 = 0.8049	0.0828
308.15 K, x1 = 0.8462	0.0682
308.15 K, x1 = 0.8863	0.0527
308.15 K, x1 = 0.9252	0.0366
308.15 K, x1 = 0.9631	0.0188
323.15 K, x1 = 0.0678	0.0469
323.15 K, x1 = 0.1326	0.0815
323.15 K, x1 = 0.1951	0.105
323.15 K, x1 = 0.2555	0.121
323.15 K, x1 = 0.3138	0.131
323.15 K, x1 = 0.3702	0.138
323.15 K, x1 = 0.4247	0.14
323.15 K, x1 = 0.4775	0.14
323.15 K, x1 = 0.5286	0.136
323.15 K, x1 = 0.5781	0.131
323.15 K, x1 = 0.6261	0.124
323.15 K, x1 = 0.6727	0.116
323.15 K, x1 = 0.7178	0.105
323.15 K, x1 = 0.7617	0.0939
323.15 K, x1 = 0.8042	0.0816
323.15 K, x1 = 0.8456	0.0673
323.15 K, x1 = 0.8858	0.0522
323.15 K, x1 = 0.9248	0.036
323.15 K, x1 = 0.9628	0.0189

OCCO [1,2-ethanediol] + CCCCO
excess molar enthalpy [kcal/mol], [2]
Conditions	298.15 K	308.15 K	323.15 K
x1 = 0.0798	–	–	0.0775
x1 = 0.0803	0.0708	0.0745	–
x1 = 0.1548	0.115	0.122	–
x1 = 0.1552	–	–	0.124
x1 = 0.225	0.144	0.152	–
x1 = 0.2253	–	–	0.159
x1 = 0.2912	0.161	0.171	–
x1 = 0.2914	–	–	0.179
x1 = 0.3537	0.172	0.181	–
x1 = 0.354	–	–	0.191
x1 = 0.4129	0.176	0.186	–
x1 = 0.4131	–	–	0.197
x1 = 0.4691	0.177	0.187	–
x1 = 0.4692	–	–	0.199
x1 = 0.5223	–	0.185	–
x1 = 0.5224	0.175	–	0.196
x1 = 0.573	0.17	0.18	0.19
x1 = 0.6211	–	0.172	0.184
x1 = 0.6212	0.163	–	–
x1 = 0.6671	0.154	0.163	0.172
x1 = 0.7108	–	–	0.16
x1 = 0.7109	0.143	0.152	–
x1 = 0.7527	0.132	0.139	0.147
x1 = 0.7926	0.117	0.124	0.132
x1 = 0.8308	0.103	0.108	–
x1 = 0.8309	–	–	0.116
x1 = 0.8675	0.0857	0.0913	0.0944
x1 = 0.9026	0.0679	0.0715	0.0749
x1 = 0.9362	0.0466	0.0485	–
x1 = 0.9363	–	–	0.0521
x1 = 0.9686	0.0243	0.026	–
x1 = 0.9687	–	–	0.0267

OCCO [1,2-ethanediol] + CCCO
excess molar enthalpy [kcal/mol], [2]
Conditions	298.15 K	308.15 K	323.15 K
x1 = 0.0644	–	–	0.0566
x1 = 0.0664	0.0498	0.0535	–
x1 = 0.13	0.0849	0.0912	0.0966
x1 = 0.1915	0.109	0.117	0.125
x1 = 0.2511	0.126	0.135	0.144
x1 = 0.3089	0.137	0.147	0.156
x1 = 0.3648	0.144	0.152	0.163
x1 = 0.4191	0.147	0.155	–
x1 = 0.4192	–	–	0.167
x1 = 0.4718	0.147	0.156	0.167
x1 = 0.5229	0.144	0.153	0.163
x1 = 0.5725	0.138	0.148	0.158
x1 = 0.6207	0.132	0.141	0.15
x1 = 0.6676	0.124	0.132	0.141
x1 = 0.7131	0.114	0.121	0.129
x1 = 0.7574	0.102	0.109	0.116
x1 = 0.8005	0.0897	0.0942	0.101
x1 = 0.8425	0.0741	0.0784	0.0838
x1 = 0.8833	–	–	0.0651
x1 = 0.8834	0.0581	0.0611	–
x1 = 0.9231	–	–	0.0448
x1 = 0.9232	0.04	0.0426	–
x1 = 0.9619	0.0209	0.0218	0.0229

OCCO [1,2-ethanediol] + CCO
excess molar enthalpy [kcal/mol], [2]
Conditions	298.15 K	308.15 K	323.15 K
x1 = 0.0526	0.0266	0.0283	0.0307
x1 = 0.1045	0.0475	0.0506	0.0547
x1 = 0.1561	0.0636	0.0678	0.0734
x1 = 0.2075	0.0758	0.0807	0.0875
x1 = 0.2587	0.084	0.0904	0.0976
x1 = 0.3096	0.0907	0.0971	0.105
x1 = 0.3604	0.0945	0.101	0.109
x1 = 0.4109	0.0962	0.103	0.111
x1 = 0.4611	0.0962	0.103	0.111
x1 = 0.5112	0.0945	0.101	0.108
x1 = 0.561	0.091	0.0971	0.105
x1 = 0.6106	0.0858	0.0915	0.0986
x1 = 0.66	0.0793	0.085	0.0911
x1 = 0.7092	0.0716	0.0765	0.0822
x1 = 0.7581	0.063	0.067	0.0724
x1 = 0.8069	0.0528	0.0562	0.0601
x1 = 0.8554	0.0412	0.0432	0.0472
x1 = 0.9037	0.0277	0.0305	0.0329
x1 = 0.9518	0.0147	0.0156	0.0169

OCCO [1,2-ethanediol] + CO
[2]
Conditions	excess molar enthalpy [kcal/mol]
298.15 K, x1 = 0.037	0.00564
298.15 K, x1 = 0.0748	0.0106
298.15 K, x1 = 0.1137	0.0147
298.15 K, x1 = 0.1538	0.0184
298.15 K, x1 = 0.195	0.0216
298.15 K, x1 = 0.2374	0.024
298.15 K, x1 = 0.2811	0.0263
298.15 K, x1 = 0.3262	0.0274
298.15 K, x1 = 0.3726	0.0287
298.15 K, x1 = 0.4206	0.0289
298.15 K, x1 = 0.4701	0.0289
298.15 K, x1 = 0.5212	0.0282
298.15 K, x1 = 0.574	0.027
298.15 K, x1 = 0.6286	0.0251
298.15 K, x1 = 0.6851	0.0226
298.15 K, x1 = 0.7436	0.0197
298.15 K, x1 = 0.8042	0.0157
298.15 K, x1 = 0.867	0.0114
298.15 K, x1 = 0.9321	0.00591
308.15 K, x1 = 0.0372	0.00594
308.15 K, x1 = 0.0752	0.0113
308.15 K, x1 = 0.1143	0.0158
308.15 K, x1 = 0.1545	0.0196
308.15 K, x1 = 0.1958	0.0234
308.15 K, x1 = 0.2384	0.0258
308.15 K, x1 = 0.2822	0.0282
308.15 K, x1 = 0.3274	0.0298
308.15 K, x1 = 0.3739	0.0307
308.15 K, x1 = 0.4219	0.0314
308.15 K, x1 = 0.4715	0.0311
308.15 K, x1 = 0.5226	0.0302
308.15 K, x1 = 0.5754	0.0285
308.15 K, x1 = 0.6299	0.0269
308.15 K, x1 = 0.6863	0.0243
308.15 K, x1 = 0.7447	0.021
308.15 K, x1 = 0.8051	0.0169
308.15 K, x1 = 0.8676	0.0121
308.15 K, x1 = 0.9325	0.00632
323.15 K, x1 = 0.0371	0.00686
323.15 K, x1 = 0.075	0.0127
323.15 K, x1 = 0.114	0.0179
323.15 K, x1 = 0.154	0.0219
323.15 K, x1 = 0.1953	0.0258
323.15 K, x1 = 0.2378	0.0291
323.15 K, x1 = 0.2815	0.0316
323.15 K, x1 = 0.3266	0.0332
323.15 K, x1 = 0.3732	0.0343
323.15 K, x1 = 0.4211	0.035
323.15 K, x1 = 0.4706	0.0344
323.15 K, x1 = 0.5218	0.034
323.15 K, x1 = 0.5746	0.0322
323.15 K, x1 = 0.6292	0.0298
323.15 K, x1 = 0.6856	0.0271
323.15 K, x1 = 0.744	0.0231
323.15 K, x1 = 0.8046	0.0185
323.15 K, x1 = 0.8673	0.013
323.15 K, x1 = 0.9323	0.00668

CCCCO [butan-1-ol]
[1]
Conditions	Normal boiling temperature [°C]	mass density [kg/m3]
–	117.71	805.9

CCC(C)O (stereo not drawn) [butan-2-ol] + OCCO
excess molar enthalpy [kcal/mol], [2]
Conditions	298.15 K	308.15 K	323.15 K
x2 = 0.081	0.0655	0.0583	0.0422
x2 = 0.1557	0.109	0.101	0.0777
x2 = 0.226	0.136	0.128	0.103
x2 = 0.2923	0.154	0.145	0.12
x2 = 0.3549	0.164	0.155	0.131
x2 = 0.4142	0.167	0.161	0.137
x2 = 0.4703	0.167	0.161	0.139
x2 = 0.5235	0.165	0.159	0.139
x2 = 0.5741	0.16	0.154	0.136
x2 = 0.6222	0.152	0.148	0.132
x2 = 0.6681	0.144	0.14	0.126
x2 = 0.7117	0.133	0.13	0.117
x2 = 0.7535	0.122	0.119	0.108
x2 = 0.7933	0.107	0.106	0.0979
x2 = 0.8314	0.093	0.0915	0.0851
x2 = 0.868	0.0777	0.0769	0.071
x2 = 0.9029	0.0603	0.0602	0.055
x2 = 0.9365	0.0421	0.0412	0.0373
x2 = 0.9687	0.0223	0.0221	0.0192

CCO [ethanol]
[1]
Conditions	Normal boiling temperature [°C]	mass density [kg/m3]
–	78.26	785.2

CO [methanol]
[1]
Conditions	Normal boiling temperature [°C]	mass density [kg/m3]
–	64.47	786.4

CCCO [propan-1-ol]
[1]
Conditions	Normal boiling temperature [°C]	mass density [kg/m3]
–	97.16	799.8

CC(C)O [propan-2-ol]
[1]
Conditions	Normal boiling temperature [°C]	mass density [kg/m3]
–	82.20	781.1
